Key:
[1] = test system: gastritis/gastric ulcer model; assay: HCl/ethanol gastritis/gastric ulcer model; assay type: in vivo, C57BL/6J mice; conditions: vs PBS buffer group; for degree of gastric mucosal damage (score): oral, 1 hour after HCl/ethanol; for Cox2 expression in gastric mucosal tissue / Il-1p expression in gastric mucosal tissue / Tnfα mRNA expression in gastric mucosal tissue / iNos mRNA expression in gastric mucosal tissue: RT-qPCR
Description: For a gastritis/gastric ulcer model, 7-week-old male C57BL/6J mice were used, and from 3 days before induction, the peptides of the present invention were dissolved in PBS buffer and then orally administered to the mice by 150 μL per animal at the same time once a day. Amuc_1409 or PEP001, PEP002, PEP003, PEP004, or PEP005 was dissolved in PBS buffer at a concentration of 6.7 μM, and novel tetrapeptides PEP006, PEP007, PEP008, PEP009, and PEP010 and novel tripeptides PEP011, PEP012, and PEP013 were each dissolved in PBS buffer at a concentration of 0.15 μg/150 μL (PEP006) or 0.2 μg/150 μL (PEP007, PEP008, PEP009, PEP010, PEP011, PEP012, and PEP013). For the induction of acute gastritis/gastric ulcer, 0.3 M HCl/60% ethanol was orally administered to the mice by 0.2 mL for each, the tissue was harvested after 1 hour, photographs of the inner surface of the stomach were taken, and the degree of damage to the stomach was compared. Measurements of gastritis/gastric ulcer indexes were converted into scores according to the degree of mucosal damage. A score of 0 was given if there was no damage, a score of 1 was given to an insignificant circle-shaped hemorrhagic corrosion site of less than 5 mm, a score of 2 was given to a hemorrhagic corrosion site with a length more than 5 mm, and a score of 3 was given to one or more hemorrhagic corrosion sites corresponding to the score of 2, a score of 4 was given to a hemorrhagic corrosion of more than 5 mm in length and less than 2 mm in width, a score of 5 was given to 2 to 3 hemorrhagic corrosions corresponding to the score of 4, a score of 6 was given to 4 to 5 hemorrhagic corrosions corresponding to the score of 4, a score of 7 was given to 6 or more hemorrhagic corrosions corresponding to the score of 4, and a score of 8 was given if there was hemorrhagic corrosion throughout the gastric mucosa. In order to confirm additional anti-inflammatory activity of the administered peptides, mRNA expression of inflammation-related genes, Tnfα, Il-1β, iNos, Cox2, and Il-10, in the gastric mucosal tissue was examined.

[2] = test system: animal model of metabolic disease accompanied by obesity/diabetes and chronic inflammation; assay: High-fat diet obesity/diabetic metabolic disease model; assay type: in vivo, C57BL/6J mice; conditions: for blood glucose in insulin resistance experiment (ITT): after insulin administration, time as stated in the value; for blood glucose in insulin resistance experiment (ITT) / AUC value of the insulin resistance experiment / body weight / LDL-C level in blood / TC (total cholesterol) level in blood / abdominal fat: vs PBS buffer group; for fasting blood glucose: after fasting for 16 hours at the end of the test; for body weight: oral, 3 weeks on high-fat diet; for maintenance of the decreased blood glucose in insulin resistance experiment: until 120 minutes after insulin
Description: An animal model of metabolic disease accompanied by obesity/diabetes and chronic inflammation was induced by feeding a high-fat diet.
The experiment in the groups administered with Amuc_1409 or PEP001 to PEP005 was performed using 8-week-old SPF male C57BL/6J mice, and the metabolic disease accompanied by obesity/diabetes and chronic inflammation was induced by ad libitum feeding of a high-fat diet for 45 weeks or 8 weeks. Specifically, mice fed a high-fat diet for 45 weeks were fed a high-fat diet for an additional 3 weeks, and Amuc_1409 was dissolved in PBS buffer at a concentration of 2.4 μM and then orally administered to the mice by 150 μL per animal at the same time once a day until the end of the experiment, or mice fed a high-fat diet for 8 weeks were fed a high-fat diet for an additional 3 weeks, and PEP001, PEP002, PEP003, PEP004, or PEP005 was dissolved in PBS buffer at a concentration of 2.4 μM and then orally administered to the mice by 150 μL per animal at the same time once a day until the end of the experiment. To the control group, PBS buffer was orally administered in the same manner.
For the experiment in the groups administered with PEP006 to PEP013, 8-week-old male C57BL/6J mice were used, and the metabolic disease accompanied by obesity/diabetes and chronic inflammation was induced by ad libitum feeding of a high-fat diet for 32, 50, or 53 weeks. Mice fed a high-fat diet for 32 weeks were fed a high-fat diet for an additional 3 weeks, and a novel tetrapeptide PEP006 was dissolved in PBS buffer at a concentration of 0.15 μg/150 μL (PEP006) and then orally administered to the mice by 150 μL per animal at the same time until the end of the test, mice fed a high-fat diet for 50 weeks were fed a high-fat diet for an additional 3 weeks, and a novel tetrapeptide PEP007, PEP008, PEP009, or PEP010 was dissolved in PBS buffer at a concentration of 0.2 μg/150 μL (PEP007 to PEP013) and then orally administered to the mice by 150 μL per animal at the same time until the end of the test, and mice fed a high-fat diet for 53 weeks were fed a high-fat diet for an additional 3 weeks, and a novel […] PEP011, PEP012, or PEP013 was dissolved in PBS buffer at a concentration of 0.2 μg/150 μL (PEP007 to PEP013) and then orally administered to the mice by 150 μL per animal at the same time until the end of the test. To the control group, PBS buffer was orally administered in the same manner.
For all animals, general symptoms were observed immediately before administration at the start of administration, and the body weight was measured until the end of the test after group separation.
Insulin (Humalog, 1 unit/kg) was intraperitoneally injected into mice fasted for 4 hours at 2 weeks after the start of test substance administration (2 weeks in groups administered with Amuc_1409 and PEP001 to PEP005 and 3 weeks in groups administered with PEP006 to PEP013), and then blood glucose at 30 minutes, 60 minutes, 90 minutes, and 120 minutes was measured from a small amount of blood obtained through a wound at the tip of the tail using ACCU-CHECK (Roche), thereby performing an insulin tolerance test (ITT).
At the end of the test, fasting blood glucose was measured from a small amount of blood obtained through a wound at the tip of the tail of the mouse fasted for 16 hours using ACCU-CHECK, and blood was collected from the orbital venous plexus using a heparin-treated capillary tube. The collected blood was immediately centrifuged at 10,000 rpm (4° C.) for 10 minutes to separate plasma, and then subjected to analysis of total cholesterol (TC) and low-density lipoprotein cholesterol (LDL-C), which are blood abnormal lipid indicators, using an automated blood biochemical analyzer.

Substance: AIS [PEP013]
- degree of gastric mucosal damage (score) [1]: significantly decreased
- blood glucose in insulin resistance experiment (ITT) [2]: decreased close to a significant level from 30 minutes to 120 minutes after insulin administration
- AUC value of the insulin resistance experiment [2]: decreased close to a significant level

Substance: AVSSI (PEP002)
- Cox2 expression in gastric mucosal tissue [1]: significantly decreased
- Il-1p expression in gastric mucosal tissue [1]: significantly decreased
- Tnfα mRNA expression in gastric mucosal tissue [1]: significantly decreased
- iNos mRNA expression in gastric mucosal tissue [1]: significantly decreased
- degree of gastric mucosal damage (score) [1]: significantly decreased
- fasting blood glucose [2]: decreased
- blood glucose in insulin resistance experiment (ITT) [2]: decreased at 30 minutes after insulin administration
- body weight [2]: decreased from the initial body weight
- AUC value of the insulin resistance experiment [2]: decreased
- LDL-C level in blood [2]: significantly decreased
- TC (total cholesterol) level in blood [2]: decreased
- abdominal fat [2]: decreased

Substance: SGAY (PEP009)
- degree of gastric mucosal damage (score) [1]: decreased to a significant level
- blood glucose in insulin resistance experiment (ITT) [2]: decreased to a significant level from 30 minutes to 120 minutes after insulin administration
- AUC value of the insulin resistance experiment [2]: decreased close to a significant level

Substance: KGAY (PEP003)
- Cox2 expression in gastric mucosal tissue [1]: significantly decreased
- Il-1p expression in gastric mucosal tissue [1]: significantly decreased
- Tnfα mRNA expression in gastric mucosal tissue [1]: significantly decreased
- iNos mRNA expression in gastric mucosal tissue [1]: significantly decreased
- degree of gastric mucosal damage (score) [1]: significantly decreased
- fasting blood glucose [2]: decreased
- blood glucose in insulin resistance experiment (ITT) [2]: decreased at 30 minutes after insulin administration
- body weight [2]: significantly decreased
- maintenance of the decreased blood glucose in insulin resistance experiment [2]: significantly maintained until 120 minutes
- AUC value of the insulin resistance experiment [2]: decreased
- LDL-C level in blood [2]: significantly decreased
- TC (total cholesterol) level in blood [2]: significantly decreased
- abdominal fat [2]: decreased

Substance: GAY [PEP005]
- Cox2 expression in gastric mucosal tissue [1]: significantly decreased
- Il-1p expression in gastric mucosal tissue [1]: significantly decreased
- Tnfα mRNA expression in gastric mucosal tissue [1]: significantly decreased
- iNos mRNA expression in gastric mucosal tissue [1]: significantly decreased
- degree of gastric mucosal damage (score) [1]: significantly decreased
- fasting blood glucose [2]: decreased
- blood glucose in insulin resistance experiment (ITT) [2]: decreased at 30 minutes after insulin administration
- body weight [2]: significantly decreased
- AUC value of the insulin resistance experiment [2]: decreased
- LDL-C level in blood [2]: significantly decreased
- TC (total cholesterol) level in blood [2]: tended to decrease
- abdominal fat [2]: decreased

Substance: AQS [PEP011]
- degree of gastric mucosal damage (score) [1]: significantly decreased
- blood glucose in insulin resistance experiment (ITT) [2]: decreased close to a significant level from 30 minutes to 120 minutes after insulin administration
- AUC value of the insulin resistance experiment [2]: decreased close to a significant level

Substance: VGAY (PEP010)
- degree of gastric mucosal damage (score) [1]: significantly decreased
- blood glucose in insulin resistance experiment (ITT) [2]: decreased to a significant level from 30 minutes to 120 minutes after insulin administration
- AUC value of the insulin resistance experiment [2]: decreased close to a significant level

Substance: AVSSIKGAY (PEP001)
- Cox2 expression in gastric mucosal tissue [1]: significantly decreased
- Il-1p expression in gastric mucosal tissue [1]: significantly decreased
- Tnfα mRNA expression in gastric mucosal tissue [1]: significantly decreased
- iNos mRNA expression in gastric mucosal tissue [1]: significantly decreased
- degree of gastric mucosal damage (score) [1]: significantly decreased
- blood glucose in insulin resistance experiment (ITT) [2]: decreased at 30 minutes after insulin administration
- body weight [2]: decreased from the initial body weight
- AUC value of the insulin resistance experiment [2]: decreased
- LDL-C level in blood [2]: significantly decreased
- TC (total cholesterol) level in blood [2]: decreased
- abdominal fat [2]: decreased

Substance: AGAY (PEP006)
- degree of gastric mucosal damage (score) [1]: significantly decreased
- blood glucose in insulin resistance experiment (ITT) [2]: decreased to a significant level from 30 minutes to 120 minutes after insulin administration
- AUC value of the insulin resistance experiment [2]: decreased close to a significant level

Substance: RGAY (PEP007)
- degree of gastric mucosal damage (score) [1]: decreased to a significant level
- blood glucose in insulin resistance experiment (ITT) [2]: decreased to a significant level from 30 minutes to 120 minutes after insulin administration
- AUC value of the insulin resistance experiment [2]: decreased close to a significant level

Substance: AGS [PEP012]
- degree of gastric mucosal damage (score) [1]: significantly decreased
- blood glucose in insulin resistance experiment (ITT) [2]: decreased close to a significant level from 30 minutes to 120 minutes after insulin administration
- AUC value of the insulin resistance experiment [2]: decreased close to a significant level

Substance: AVS (AVSSIKGAY) [PEP004]
- Cox2 expression in gastric mucosal tissue [1]: significantly decreased
- Il-1p expression in gastric mucosal tissue [1]: significantly decreased
- Tnfα mRNA expression in gastric mucosal tissue [1]: significantly decreased
- iNos mRNA expression in gastric mucosal tissue [1]: significantly decreased
- degree of gastric mucosal damage (score) [1]: significantly decreased
- fasting blood glucose [2]: decreased
- blood glucose in insulin resistance experiment (ITT) [2]: decreased at 30 minutes after insulin administration
- body weight [2]: significantly decreased
- maintenance of the decreased blood glucose in insulin resistance experiment [2]: significantly maintained until 120 minutes
- AUC value of the insulin resistance experiment [2]: decreased
- LDL-C level in blood [2]: significantly decreased
- TC (total cholesterol) level in blood [2]: tended to decrease
- abdominal fat [2]: decreased

Substance: IGAY (PEP008)
- degree of gastric mucosal damage (score) [1]: decreased to a significant level
- blood glucose in insulin resistance experiment (ITT) [2]: decreased to a significant level from 30 minutes to 120 minutes after insulin administration
- AUC value of the insulin resistance experiment [2]: significantly decreased
